Data reported in ChEMBL document CHEMBL1250451, “Mechanistic insights into a Ca2+-dependent family of alpha-mannosidases in a human gut symbiont” (Nat Chem Biol, 2010).
Activity calls are given as the source filed them. No cut-off for these calls is given here.

Tests used:
Type in all cases: protein assay
[1] = biological target: T1, Alpha-1,2-mannosidase (BT_2948) (Bacteroides thetaiotaomicron) (UniProt Q8A3K6); test: Activity of Bacteroides thetaiotaomicron GH92 alpha-mannosidase GH92 alpha-mannosidase 2948 assessed as mannose release at 1 mM after 16 hrs by HPLC relative to untreated control after 16 hrs by HPLC
T1 sequence (whole entry): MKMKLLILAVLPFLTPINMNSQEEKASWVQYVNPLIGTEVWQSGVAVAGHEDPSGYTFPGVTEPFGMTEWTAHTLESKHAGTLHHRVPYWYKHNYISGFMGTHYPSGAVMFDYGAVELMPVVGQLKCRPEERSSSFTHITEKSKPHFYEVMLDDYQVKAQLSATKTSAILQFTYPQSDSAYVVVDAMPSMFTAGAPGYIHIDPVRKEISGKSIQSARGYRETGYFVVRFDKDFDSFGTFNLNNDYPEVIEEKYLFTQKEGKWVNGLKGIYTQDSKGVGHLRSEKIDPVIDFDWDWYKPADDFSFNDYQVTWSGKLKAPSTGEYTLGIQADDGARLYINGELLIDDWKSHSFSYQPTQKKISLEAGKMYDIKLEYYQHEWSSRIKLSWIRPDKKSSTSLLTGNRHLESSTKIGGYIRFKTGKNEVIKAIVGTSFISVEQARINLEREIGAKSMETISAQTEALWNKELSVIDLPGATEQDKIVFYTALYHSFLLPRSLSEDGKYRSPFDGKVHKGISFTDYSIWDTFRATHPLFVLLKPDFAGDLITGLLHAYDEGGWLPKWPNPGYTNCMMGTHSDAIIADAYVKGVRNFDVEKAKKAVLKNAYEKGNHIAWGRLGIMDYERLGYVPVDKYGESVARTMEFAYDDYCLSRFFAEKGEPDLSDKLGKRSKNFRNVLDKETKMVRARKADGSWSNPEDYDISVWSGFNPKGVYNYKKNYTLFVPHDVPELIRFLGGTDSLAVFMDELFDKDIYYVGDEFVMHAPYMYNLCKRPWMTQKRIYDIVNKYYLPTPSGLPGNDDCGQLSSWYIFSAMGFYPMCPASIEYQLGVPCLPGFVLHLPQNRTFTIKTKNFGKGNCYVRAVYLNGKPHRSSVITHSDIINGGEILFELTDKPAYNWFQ

[2] = biological target: T2, Alpha-1,2-mannosidase, putative (BT_4073) (Bacteroides thetaiotaomicron) (UniProt Q8A0E8); test: Activity of Bacteroides thetaiotaomicron GH92 alpha-mannosidase GH92 alpha-mannosidase 4073 assessed as mannose release at 1 mM after 16 hrs by HPLC relative to untreated control after 16 hrs by HPLC
T2 sequence (whole entry): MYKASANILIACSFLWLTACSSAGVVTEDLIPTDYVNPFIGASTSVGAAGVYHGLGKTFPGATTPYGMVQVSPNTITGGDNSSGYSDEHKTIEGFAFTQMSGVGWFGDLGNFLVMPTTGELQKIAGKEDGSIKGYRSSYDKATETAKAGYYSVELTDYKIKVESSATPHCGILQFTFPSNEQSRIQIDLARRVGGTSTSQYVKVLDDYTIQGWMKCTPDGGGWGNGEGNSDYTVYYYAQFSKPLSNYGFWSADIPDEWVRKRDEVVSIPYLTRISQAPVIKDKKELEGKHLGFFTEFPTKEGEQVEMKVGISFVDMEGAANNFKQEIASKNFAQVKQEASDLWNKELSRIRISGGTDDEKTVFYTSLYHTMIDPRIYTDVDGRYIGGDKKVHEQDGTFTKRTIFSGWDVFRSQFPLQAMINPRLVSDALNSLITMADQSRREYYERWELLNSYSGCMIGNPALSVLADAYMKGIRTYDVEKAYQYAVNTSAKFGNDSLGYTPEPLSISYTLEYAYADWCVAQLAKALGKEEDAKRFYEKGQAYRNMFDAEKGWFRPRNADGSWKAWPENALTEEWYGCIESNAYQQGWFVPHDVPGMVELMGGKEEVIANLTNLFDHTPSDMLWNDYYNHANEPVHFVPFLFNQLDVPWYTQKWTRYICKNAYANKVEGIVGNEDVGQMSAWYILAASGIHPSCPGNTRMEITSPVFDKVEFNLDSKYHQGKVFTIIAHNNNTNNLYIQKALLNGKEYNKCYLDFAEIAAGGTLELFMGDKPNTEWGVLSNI

[3] = biological target: T3, Alpha-1,2-mannosidase family protein (BT_4093) (Bacteroides thetaiotaomicron) (UniProt Q8A0C8); test: Activity of Bacteroides thetaiotaomicron GH92 alpha-mannosidase GH92 alpha-mannosidase 4093 assessed as mannose release at 1 mM after 16 hrs by HPLC relative to untreated control after 16 hrs by HPLC
T3 sequence (whole entry): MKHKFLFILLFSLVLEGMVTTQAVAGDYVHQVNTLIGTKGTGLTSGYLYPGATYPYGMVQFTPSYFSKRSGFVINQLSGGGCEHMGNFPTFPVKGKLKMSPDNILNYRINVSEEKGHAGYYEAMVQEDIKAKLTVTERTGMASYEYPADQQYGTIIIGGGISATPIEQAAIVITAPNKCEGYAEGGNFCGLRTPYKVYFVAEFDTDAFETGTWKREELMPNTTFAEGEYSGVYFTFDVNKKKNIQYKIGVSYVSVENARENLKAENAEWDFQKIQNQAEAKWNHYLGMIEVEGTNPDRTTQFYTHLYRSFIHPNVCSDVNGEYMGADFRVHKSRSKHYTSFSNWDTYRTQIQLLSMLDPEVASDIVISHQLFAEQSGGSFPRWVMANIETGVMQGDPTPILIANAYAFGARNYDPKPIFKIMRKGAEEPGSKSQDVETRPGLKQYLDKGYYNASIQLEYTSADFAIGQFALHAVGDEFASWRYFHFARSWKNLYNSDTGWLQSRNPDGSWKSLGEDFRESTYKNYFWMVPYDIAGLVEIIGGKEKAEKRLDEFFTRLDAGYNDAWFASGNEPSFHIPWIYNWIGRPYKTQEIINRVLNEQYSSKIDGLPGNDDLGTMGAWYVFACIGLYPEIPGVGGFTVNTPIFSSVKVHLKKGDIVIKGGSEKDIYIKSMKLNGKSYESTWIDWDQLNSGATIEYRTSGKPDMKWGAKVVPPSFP

SMILES | Activity [1] | Activity [2] | Activity [3]
OC[C@H]1O[C@H](O[C@H]2[C@@H](O)[C@H](O)[C@@H](CO)O[C@@H]2O)[C@@H](O)[C@@H](O)[C@@H]1O | inactive | inactive | inactive
OC[C@H]1O[C@H](OC[C@H]2O[C@H](O)[C@@H](O)[C@@H](O)[C@@H]2O)[C@@H](O)[C@@H](O)[C@@H]1O | inactive | inactive | inactive
OC[C@H]1O[C@H](O[C@@H]2[C@H](O)[C@@H](O)O[C@H](CO)[C@H]2O)[C@@H](O)[C@@H](O)[C@@H]1O | inactive | inactive | inactive
OC[C@H]1O[C@H](O[C@H]2[C@H](O)[C@H](O)[C@@H](O)O[C@@H]2CO)[C@@H](O)[C@@H](O)[C@@H]1O | inactive | 100% | 100%
